The record followed here is ChEMBL document CHEMBL1201862, “PubChem BioAssay data set” (2004).

Among the test systems are SN12C; IGROV-1; HCC 2998; OVCAR-5; NCI-H226; KM12; NCI-H23; SF-295; SR; EKVX; CAKI-1; SW-620; NCI-H522; CCRF-CEM; RXF 393; SK-MEL-5; SF-539; UO-31; SNB-19; T47D.
Common to all, as to assay: DTP human tumour cell line panel, 48 h

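A five-concentration, 48-hour dose response in 96-well plates underlies each endpoint, interpolated linearly between surrounding concentrations. GI50 marks 50% less growth.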 The source made the active and inactive calls. Rule as the data show it: active = GI50 up to about 1.1 µM and inactive = higher. Bounds are passed on as bounds.

For orientation: GI50 means the concentration giving 50% growth inhibition.

As to `Cc1ccc(NC(=O)C(=O)Cc2cc[n+]([O-])cc2)cc1`, the GI50 in the test with SN12C, in the test on IGROV-1, with HCC 2998, in the test with OVCAR-5, in the test on NCI-H226 and in the test on KM12 was > 100 µM (inactive) in each case. Further, the GI50 in the test on NCI-H23, in the test on SF-295, in the test on SR, in the test with EKVX, in the test on CAKI-1 and in the test with SW-620 was > 100 µM (inactive) in each case. Further, the GI50 with NCI-H522, in the test on CCRF-CEM, with RXF 393, with SK-MEL-5, with SF-539 and with UO-31 was > 100 µM (inactive) in each case. Moreover, in the test with SNB-19, the GI50 is > 100 µM (inactive).
Regarding `COc1cc2c(c(OC)c1OC)-c1ccc(SC)c(=O)cc1C(CC(=O)Oc1cccc([N+](=O)[O-])c1)C2` (stereo not given), the GI50 in the test on SN12C was 1.11 µM (active); with IGROV-1 it was 3.44 µM (inactive); in the test on HCC 2998, 0.161 µM (active); with NCI-H226, 0.764 µM (active); with KM12, 0.424 µM (active); in the test with NCI-H23 it was 0.78 µM (active). The GI50 in the test with SF-295 is 0.342 µM (active); in the test with SR, 0.459 µM (active); with EKVX, 3.38 µM (inactive); in the test on CAKI-1 it was 0.685 µM (active); in the test on SW-620 it was 0.4 µM (active); in the test on NCI-H522, 0.493 µM (active). The GI50 was 0.745 µM (active) with CCRF-CEM; 0.139 µM (active) in the test with RXF 393; 0.592 µM (active) with SK-MEL-5; 0.263 µM (active) in the test with SF-539; 2.76 µM (inactive) in the test on UO-31; 4.62 µM (inactive) in the test with SNB-19.
On to `[C-]#[N+]C(C)(C)C[C@H]1CC(C)C2CCC(C)C3([N+]#[C-])CCC(=C)C1[C@H]23` (stereo not given in full), for which the GI50 in the test on SN12C was 0.195 µM (active); in the test with IGROV-1 it was 1.34 µM (inactive); in the test with HCC 2998, 5.83 µM (inactive); with OVCAR-5 it was 0.288 µM (active); in the test on NCI-H226, 2.32 µM (inactive); with KM12 it was 0.308 µM (active). Further, the GI50 is 0.509 µM (active) with NCI-H23; 0.887 µM (active) with SF-295; 0.418 µM (active) in the test on SR; 6.55 µM (inactive) with EKVX; 3.19 µM (inactive) in the test with CAKI-1; 5.08 µM (inactive) with SW-620. The GI50 is 1.95 µM (inactive) in the test on NCI-H522; 2.37 µM (inactive) in the test on CCRF-CEM; 0.294 µM (active) in the test on RXF 393; 2.67 µM (inactive) with SK-MEL-5; 3.37 µM (inactive) in the test on SF-539; 0.251 µM (active) with UO-31. Besides, in the test with SNB-19, the GI50 is 2.22 µM (inactive).
Turning to `CC(=O)Oc1c2oc3cc(O)c(O)cc3c2c(OC(C)=O)c2oc3cc(O)c(O)cc3c12` [POLYOZELLIN], the GI50 in the test with SN12C is 20.9 µM (inactive); in the test on IGROV-1, 18.2 µM (inactive); in the test on HCC 2998 it was 16.9 µM (inactive); in the test with OVCAR-5 it was 25.5 µM (inactive); in the test on NCI-H226, 19.2 µM (inactive); in the test on KM12, 20.3 µM (inactive). Further, the GI50 with NCI-H23 is 2.39 µM (inactive); with SF-295 it was 16.7 µM (inactive); with SR it was 4.4 µM (inactive); with EKVX, 20.6 µM (inactive); in the test on CAKI-1, 29.2 µM (inactive); in the test with SW-620 it was 23.2 µM (inactive). The GI50 in the test on NCI-H522 is 10.3 µM (inactive); in the test on CCRF-CEM, 2.57 µM (inactive); in the test on RXF 393, 18.1 µM (inactive); in the test on SK-MEL-5 it was 18.6 µM (inactive); in the test with SF-539, 23 µM (inactive); in the test on UO-31 it was 21 µM (inactive). Besides, in the test on SNB-19, the GI50 was 23.7 µM (inactive).
Take `CCN(CC)/[N+]([O-])=N/OCC(C)O` (stereo not given): the GI50 in the test on SN12C, in the test with IGROV-1, with HCC 2998, in the test on OVCAR-5, in the test on NCI-H226 and with KM12 was > 100 µM (inactive) throughout. In addition, the GI50 in the test on NCI-H23, in the test on SF-295, with SR, in the test with EKVX, with CAKI-1 and in the test on SW-620 was > 100 µM (inactive) each time. Besides, the GI50 in the test with NCI-H522, in the test on CCRF-CEM, in the test on RXF 393, with SK-MEL-5, with SF-539 and in the test on UO-31 was > 100 µM (inactive) each time. Besides, the GI50 in the test on SNB-19 was > 100 µM (inactive).
With `COc1c(Br)cc2ccccc2c1-c1c(OC)c(Br)cc2ccccc12`, the GI50 is > 100 µM (inactive) in the test with IGROV-1; > 100 µM (inactive) in the test with HCC 2998; > 100 µM (inactive) in the test with OVCAR-5; > 100 µM (inactive) in the test on NCI-H226; 79.1 µM (inactive) in the test with KM12; > 100 µM (inactive) with NCI-H23. The GI50 with T47D is 7.01 µM (inactive); with SF-295, > 100 µM (inactive); with EKVX, > 100 µM (inactive); in the test on CAKI-1, > 100 µM (inactive); in the test on SW-620 it was > 100 µM (inactive); in the test with NCI-H522 it was 74.6 µM (inactive). Besides, the GI50 is > 100 µM (inactive) in the test with CCRF-CEM; > 100 µM (inactive) with RXF 393; 67.5 µM (inactive) in the test on SK-MEL-5; > 100 µM (inactive) in the test on SF-539; > 100 µM (inactive) with UO-31; > 100 µM (inactive) in the test with SNB-19.
`COc1ccc(C#CCC(OC2OC(CO)C(O)C(O)C2O)C(O)c2ccc(OC)c(OC)c2)cc1OC` (stereo not given): the GI50 with SN12C, in the test on IGROV-1, with HCC 2998, with OVCAR-5, with NCI-H226 and in the test on KM12 was > 100 µM (inactive) each time. The GI50 with NCI-H23 is > 100 µM (inactive); with SF-295, > 100 µM (inactive); in the test with SR it was > 100 µM (inactive); in the test on EKVX it was 81.3 µM (inactive); with CAKI-1, > 100 µM (inactive); with SW-620 it was > 100 µM (inactive). The GI50 was > 100 µM (inactive) with NCI-H522; 36.6 µM (inactive) with CCRF-CEM; > 100 µM (inactive) in the test on RXF 393; > 100 µM (inactive) in the test on SK-MEL-5; > 100 µM (inactive) in the test on SF-539; > 100 µM (inactive) in the test with UO-31. In addition, the GI50 in the test on SNB-19 is > 100 µM (inactive).
Turning to `CN(C)CCNC(=O)c1ccc2ccc3cccnc3c2n1`, the GI50 in the test with SN12C was 13.8 µM (inactive); with IGROV-1, 25.7 µM (inactive); in the test with HCC 2998, 10.5 µM (inactive); with OVCAR-5, 14.6 µM (inactive); with NCI-H226, 14.3 µM (inactive); in the test on KM12, 18.2 µM (inactive). The GI50 was 17.1 µM (inactive) in the test on NCI-H23; 18.7 µM (inactive) with SF-295; 4.24 µM (inactive) in the test on SR; 15.5 µM (inactive) in the test on EKVX; 13.1 µM (inactive) with CAKI-1; 5.98 µM (inactive) with SW-620. Besides, the GI50 in the test on NCI-H522 was 7.23 µM (inactive); in the test on CCRF-CEM, 18.9 µM (inactive); with RXF 393 it was 12.8 µM (inactive); in the test with SK-MEL-5, 13.9 µM (inactive); in the test with SF-539, 8.63 µM (inactive); in the test with UO-31, 12.2 µM (inactive). The GI50 in the test on SNB-19 is 19.6 µM (inactive).
In the case of `Cc1c2ccccc2c(C)c2c3c(ccc12)C(=O)C=CC3=O`, the GI50 with SN12C was 27.8 µM (inactive); in the test on IGROV-1, 20 µM (inactive); in the test with HCC 2998, 35.3 µM (inactive); in the test on OVCAR-5, > 100 µM (inactive); in the test on NCI-H226, > 89.5 µM (inactive); in the test on KM12, 27.3 µM (inactive). In addition, the GI50 in the test with NCI-H23 was 32.3 µM (inactive); in the test with SF-295, 24.7 µM (inactive); with SR, 8.36 µM (inactive); with EKVX it was 30.2 µM (inactive); in the test on CAKI-1 it was 22.1 µM (inactive); in the test on SW-620, 21.6 µM (inactive). The GI50 in the test on NCI-H522 is 13.6 µM (inactive); with CCRF-CEM, 2.49 µM (inactive); in the test with RXF 393, 13 µM (inactive); in the test with SK-MEL-5, 37.7 µM (inactive); with SF-539 it was 35.6 µM (inactive); in the test on UO-31, 18.2 µM (inactive). In the test with SNB-19, the GI50 is > 100 µM (inactive).
Regarding `Cc1nc(Nc2ccc(Cl)c(Cl)c2)sc1C(=O)/C=C/c1ccc2c(c1)OCO2`, the GI50 in the test on IGROV-1 was 38.6 µM (inactive); with HCC 2998, 30.2 µM (inactive); in the test with OVCAR-5, 88.7 µM (inactive); in the test on NCI-H226, 25.9 µM (inactive); in the test on KM12, 20.9 µM (inactive); in the test on NCI-H23, 20 µM (inactive). The GI50 is 42.5 µM (inactive) with T47D; 20 µM (inactive) in the test on SF-295; 34.5 µM (inactive) in the test with EKVX; 16.5 µM (inactive) in the test with CAKI-1; 40.5 µM (inactive) with SW-620; 31.8 µM (inactive) with CCRF-CEM. Besides, the GI50 in the test on RXF 393 was 15.9 µM (inactive); with SK-MEL-5, 33.4 µM (inactive); in the test with SF-539, 23.7 µM (inactive); in the test on UO-31, 16.9 µM (inactive); in the test with SNB-19, 21.5 µM (inactive).
For `O=S(=O)(Cc1ccccc1)SCc1ccccc1`, the GI50 is 24.7 µM (inactive) with SN12C; 31.6 µM (inactive) in the test on IGROV-1; 17.8 µM (inactive) in the test on HCC 2998; > 74 µM (inactive) with OVCAR-5; 24.5 µM (inactive) in the test on NCI-H226; 32.4 µM (inactive) in the test on KM12. Besides, the GI50 with NCI-H23 was 23.1 µM (inactive); in the test on SF-295, 24.7 µM (inactive); in the test with SR it was 10.9 µM (inactive); in the test on EKVX it was 30.2 µM (inactive); in the test on CAKI-1 it was > 50.9 µM (inactive); in the test with SW-620, 4.37 µM (inactive). The GI50 in the test on NCI-H522 was 10.7 µM (inactive); with CCRF-CEM, 3.24 µM (inactive); in the test on RXF 393 it was 25.8 µM (inactive); in the test with SK-MEL-5, 21.4 µM (inactive); with SF-539, 18.3 µM (inactive); with UO-31 it was 61.4 µM (inactive). Also, in the test with SNB-19, the GI50 is 33.6 µM (inactive).
